# From publication PMC3776780, “Dual p38/JNK Mitogen Activated Protein Kinase Inhibitors Prevent Ozone-Induced Airway Hyperreactivity in Guinea Pigs” (PLoS ONE, 2013)
# Where two headings read alike, the source gives them in different places.
# How the values were obtained:
# Assay in all cases: spectrophotometric coupled-enzyme kinase inhibition assay
# Assay type in all cases: biochemical
# AurA = target: T1, AurA (Homo sapiens, UniProt O14965); settings: read-out: Ki or IC50 AurA
# T1 sequence (O14965 1-403): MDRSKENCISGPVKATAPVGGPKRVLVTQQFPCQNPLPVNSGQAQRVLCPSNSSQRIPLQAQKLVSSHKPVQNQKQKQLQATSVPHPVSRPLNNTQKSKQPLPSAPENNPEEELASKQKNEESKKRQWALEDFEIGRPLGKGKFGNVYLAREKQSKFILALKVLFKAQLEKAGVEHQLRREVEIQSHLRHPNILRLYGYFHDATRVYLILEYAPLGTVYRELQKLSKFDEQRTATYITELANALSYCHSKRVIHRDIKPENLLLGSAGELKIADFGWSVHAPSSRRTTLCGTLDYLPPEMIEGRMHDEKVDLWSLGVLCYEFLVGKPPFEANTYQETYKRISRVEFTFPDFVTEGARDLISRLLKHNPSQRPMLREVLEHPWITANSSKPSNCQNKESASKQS
# Protocol: (§1) Affinity was measured using a kinase inhibition assay. Compounds were assayed for the inhibition of various kinases using a modification of a spectrophotometric coupled-enzyme assay. In this assay, a fixed concentration of activated kinase (10–40 nM) was incubated with various concentrations of a potential inhibitor dissolved in DMSO for 10 minutes at 30°C in a buffer containing 0.1 M HEPES, pH 7.5, containing 10 mM MgCl2, 2.5 mM phosphoenolpyruvate, 200 µM NADH, 2 mM DTT, 30 µg/mL pyruvate kinase, 10 µg/mL lactate dehydrogenase, and 200 µM–500 µM EGF receptor peptide. The EGF receptor peptide has the sequence […]. The reaction was initiated by the addition of ATP equal to the ATP Km of the kinase, and the assay plate is inserted into the spectrophotometer’s assay plate compartment that was maintained at 30°C. The decrease of absorbance at 340 nm was monitored as a function of time for 10 minutes. The rate data as a function of inhibitor concentration was either fit as an IC50 or to a competitive inhibition kinetic model to determine the compound Ki (see table 1).
# ERK2 = ERK2 (Homo sapiens, UniProt P28482); settings: read-out: Ki or IC50 ERK2
# Chain of ERK2 (P28482 whole entry, species assumed): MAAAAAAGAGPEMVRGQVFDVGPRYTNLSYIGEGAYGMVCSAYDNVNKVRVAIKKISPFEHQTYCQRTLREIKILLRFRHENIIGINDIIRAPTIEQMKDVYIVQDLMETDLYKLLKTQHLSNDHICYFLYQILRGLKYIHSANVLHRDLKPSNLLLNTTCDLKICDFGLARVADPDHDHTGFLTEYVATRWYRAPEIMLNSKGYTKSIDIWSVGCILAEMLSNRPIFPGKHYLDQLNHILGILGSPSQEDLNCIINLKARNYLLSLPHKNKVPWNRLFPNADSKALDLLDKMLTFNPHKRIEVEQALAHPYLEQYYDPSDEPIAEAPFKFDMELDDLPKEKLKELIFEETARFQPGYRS
# Protocol: as §1
# GSK3β = GSK3β (Homo sapiens, UniProt P49841)
# Chain of GSK3β (P49841 whole entry, species assumed): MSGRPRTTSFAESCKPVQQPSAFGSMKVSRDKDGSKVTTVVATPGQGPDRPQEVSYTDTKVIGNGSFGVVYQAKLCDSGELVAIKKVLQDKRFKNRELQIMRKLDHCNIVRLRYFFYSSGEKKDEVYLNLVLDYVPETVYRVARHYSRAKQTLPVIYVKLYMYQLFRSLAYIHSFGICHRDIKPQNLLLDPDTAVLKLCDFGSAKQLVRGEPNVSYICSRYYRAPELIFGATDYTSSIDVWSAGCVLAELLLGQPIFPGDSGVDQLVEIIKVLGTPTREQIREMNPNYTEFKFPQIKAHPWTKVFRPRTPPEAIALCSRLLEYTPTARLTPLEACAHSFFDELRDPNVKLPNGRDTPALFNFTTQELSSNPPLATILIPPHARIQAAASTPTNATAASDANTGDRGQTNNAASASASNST
# Protocol: as §1
# IGF1R = IGF1R (Homo sapiens, UniProt P08069); settings: read-out: Ki or IC50 IGF1R
# Chain of IGF1R (P08069 31-1367, species assumed): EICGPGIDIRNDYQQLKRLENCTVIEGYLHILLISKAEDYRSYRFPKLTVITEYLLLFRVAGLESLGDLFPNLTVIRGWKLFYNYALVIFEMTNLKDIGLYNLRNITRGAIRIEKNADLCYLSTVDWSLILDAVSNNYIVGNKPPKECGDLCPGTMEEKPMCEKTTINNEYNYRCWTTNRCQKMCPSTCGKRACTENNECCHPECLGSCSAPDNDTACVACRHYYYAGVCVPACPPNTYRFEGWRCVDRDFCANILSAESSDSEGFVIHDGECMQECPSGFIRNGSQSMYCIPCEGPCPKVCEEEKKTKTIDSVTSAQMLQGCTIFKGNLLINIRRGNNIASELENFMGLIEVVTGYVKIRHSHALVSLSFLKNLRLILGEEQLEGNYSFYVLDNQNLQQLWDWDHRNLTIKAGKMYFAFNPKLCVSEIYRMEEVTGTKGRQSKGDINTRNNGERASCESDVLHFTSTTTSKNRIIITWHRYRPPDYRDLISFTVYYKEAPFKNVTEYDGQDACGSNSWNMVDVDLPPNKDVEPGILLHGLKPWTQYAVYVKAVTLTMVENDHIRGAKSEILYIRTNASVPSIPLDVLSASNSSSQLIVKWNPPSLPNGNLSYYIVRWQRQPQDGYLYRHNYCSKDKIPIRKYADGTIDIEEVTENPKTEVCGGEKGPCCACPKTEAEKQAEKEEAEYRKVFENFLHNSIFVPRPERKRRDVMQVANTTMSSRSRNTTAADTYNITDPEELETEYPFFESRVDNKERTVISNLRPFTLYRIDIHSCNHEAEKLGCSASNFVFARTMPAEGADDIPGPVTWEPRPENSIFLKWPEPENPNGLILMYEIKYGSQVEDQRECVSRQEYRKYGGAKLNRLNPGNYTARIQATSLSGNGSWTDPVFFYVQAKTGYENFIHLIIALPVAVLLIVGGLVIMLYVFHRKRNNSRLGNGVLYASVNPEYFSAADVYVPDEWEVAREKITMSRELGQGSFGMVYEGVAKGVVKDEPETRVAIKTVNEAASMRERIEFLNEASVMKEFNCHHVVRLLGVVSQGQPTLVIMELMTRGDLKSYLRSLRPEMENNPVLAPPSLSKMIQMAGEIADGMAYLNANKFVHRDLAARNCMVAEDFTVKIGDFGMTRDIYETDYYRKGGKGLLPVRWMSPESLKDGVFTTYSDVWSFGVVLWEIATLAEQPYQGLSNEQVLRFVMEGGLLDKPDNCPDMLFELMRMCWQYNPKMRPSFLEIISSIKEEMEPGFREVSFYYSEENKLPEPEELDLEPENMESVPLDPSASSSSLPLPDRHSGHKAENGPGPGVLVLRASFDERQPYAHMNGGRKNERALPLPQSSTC
# Protocol: as §1
# JNK3 = JNK3 (Homo sapiens, UniProt P53779); settings: ATP equal to Km, 30°C
# Chain of JNK3 (P53779 whole entry, species assumed): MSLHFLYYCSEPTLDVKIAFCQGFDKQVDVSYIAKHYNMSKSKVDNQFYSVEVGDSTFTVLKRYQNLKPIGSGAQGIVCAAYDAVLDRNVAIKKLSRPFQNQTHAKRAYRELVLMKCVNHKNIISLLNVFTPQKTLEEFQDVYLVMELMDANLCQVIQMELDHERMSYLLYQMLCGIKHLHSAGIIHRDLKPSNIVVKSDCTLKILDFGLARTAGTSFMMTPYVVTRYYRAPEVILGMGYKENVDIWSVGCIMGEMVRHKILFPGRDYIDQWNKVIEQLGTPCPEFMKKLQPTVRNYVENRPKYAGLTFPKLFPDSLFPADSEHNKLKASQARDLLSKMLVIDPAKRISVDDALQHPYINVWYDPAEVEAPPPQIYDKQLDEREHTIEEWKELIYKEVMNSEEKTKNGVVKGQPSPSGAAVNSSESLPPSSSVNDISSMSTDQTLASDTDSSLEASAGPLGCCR
# Protocol: as §1
# MKK4 = target: T2, MKK4 (Homo sapiens, UniProt P45985); settings: read-out: Ki or IC50 MKK4
# T2 sequence (P45985 1-399): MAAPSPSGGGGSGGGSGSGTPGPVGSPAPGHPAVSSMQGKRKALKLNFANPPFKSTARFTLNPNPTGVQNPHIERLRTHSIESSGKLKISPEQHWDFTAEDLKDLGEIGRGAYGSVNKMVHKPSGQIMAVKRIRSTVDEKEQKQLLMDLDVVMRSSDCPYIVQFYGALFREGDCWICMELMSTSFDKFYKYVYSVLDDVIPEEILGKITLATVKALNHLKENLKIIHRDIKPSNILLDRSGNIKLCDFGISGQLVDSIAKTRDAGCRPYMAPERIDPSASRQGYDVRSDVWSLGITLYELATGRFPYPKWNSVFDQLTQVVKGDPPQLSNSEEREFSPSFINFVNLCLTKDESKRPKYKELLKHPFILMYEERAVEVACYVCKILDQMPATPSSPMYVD
# Protocol: as §1
# PLK1 = PLK1 (Homo sapiens, UniProt P53350); settings: read-out: Ki or IC50 PLK1
# Chain of PLK1 (P53350 whole entry, species assumed): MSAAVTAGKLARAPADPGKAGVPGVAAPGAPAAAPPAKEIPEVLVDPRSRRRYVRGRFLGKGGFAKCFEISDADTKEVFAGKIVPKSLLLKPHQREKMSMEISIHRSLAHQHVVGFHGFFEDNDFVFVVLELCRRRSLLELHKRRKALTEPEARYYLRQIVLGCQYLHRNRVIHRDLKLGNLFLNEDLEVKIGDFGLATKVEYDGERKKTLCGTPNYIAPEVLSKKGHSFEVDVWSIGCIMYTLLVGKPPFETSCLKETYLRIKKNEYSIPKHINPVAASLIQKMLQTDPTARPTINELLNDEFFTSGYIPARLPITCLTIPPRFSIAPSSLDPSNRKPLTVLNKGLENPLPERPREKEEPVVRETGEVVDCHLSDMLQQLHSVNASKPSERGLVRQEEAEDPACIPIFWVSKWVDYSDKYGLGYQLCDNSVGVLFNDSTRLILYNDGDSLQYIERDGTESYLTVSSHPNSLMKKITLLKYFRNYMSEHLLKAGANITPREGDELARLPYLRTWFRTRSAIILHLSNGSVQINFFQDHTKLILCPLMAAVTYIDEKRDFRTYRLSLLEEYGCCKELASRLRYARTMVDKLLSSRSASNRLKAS
# Protocol: as §1
# PRAK = target: T3, PRAK (Homo sapiens, UniProt Q8IW41); settings: read-out: Ki or IC50 PRAK
# T3 sequence (Q8IW41 1-473): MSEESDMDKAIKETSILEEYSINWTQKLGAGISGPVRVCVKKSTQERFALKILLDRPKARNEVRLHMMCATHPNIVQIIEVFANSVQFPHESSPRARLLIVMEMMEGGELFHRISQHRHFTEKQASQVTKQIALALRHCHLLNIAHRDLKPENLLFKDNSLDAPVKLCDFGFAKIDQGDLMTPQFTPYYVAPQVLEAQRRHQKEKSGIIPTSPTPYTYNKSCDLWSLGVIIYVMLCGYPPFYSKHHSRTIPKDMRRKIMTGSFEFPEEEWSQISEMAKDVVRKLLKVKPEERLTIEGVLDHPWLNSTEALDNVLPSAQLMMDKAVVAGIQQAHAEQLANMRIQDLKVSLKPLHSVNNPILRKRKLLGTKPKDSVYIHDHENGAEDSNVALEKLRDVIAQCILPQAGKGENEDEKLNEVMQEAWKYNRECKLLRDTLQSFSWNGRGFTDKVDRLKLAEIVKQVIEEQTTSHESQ
# Protocol: as §1
# SRC = SRC (Homo sapiens, UniProt P12931); settings: read-out: Ki or IC50 SRC
# Chain of SRC (P12931 whole entry, species assumed): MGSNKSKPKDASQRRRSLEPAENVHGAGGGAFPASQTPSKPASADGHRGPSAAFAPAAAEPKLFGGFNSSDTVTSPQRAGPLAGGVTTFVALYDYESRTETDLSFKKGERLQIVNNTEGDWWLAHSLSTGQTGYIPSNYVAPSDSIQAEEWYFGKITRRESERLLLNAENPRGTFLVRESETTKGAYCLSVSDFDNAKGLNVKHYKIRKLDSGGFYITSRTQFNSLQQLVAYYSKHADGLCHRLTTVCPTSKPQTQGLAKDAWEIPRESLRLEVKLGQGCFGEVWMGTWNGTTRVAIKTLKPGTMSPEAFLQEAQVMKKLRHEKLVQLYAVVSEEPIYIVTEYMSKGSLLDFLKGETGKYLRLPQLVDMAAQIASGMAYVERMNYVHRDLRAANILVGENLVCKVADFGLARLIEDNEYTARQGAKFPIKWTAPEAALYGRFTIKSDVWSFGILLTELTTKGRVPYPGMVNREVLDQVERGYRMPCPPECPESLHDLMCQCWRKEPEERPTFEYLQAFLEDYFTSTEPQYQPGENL
# Protocol: as §1
# SYK = SYK (Homo sapiens, UniProt P43405); settings: read-out: Ki or IC50 SYK
# Protocol: as §1
# ZAP70 = target: T4, ZAP70 (Homo sapiens, UniProt P43403); settings: read-out: Ki or IC50 ZAP70
# T4 sequence (P43403 1-619): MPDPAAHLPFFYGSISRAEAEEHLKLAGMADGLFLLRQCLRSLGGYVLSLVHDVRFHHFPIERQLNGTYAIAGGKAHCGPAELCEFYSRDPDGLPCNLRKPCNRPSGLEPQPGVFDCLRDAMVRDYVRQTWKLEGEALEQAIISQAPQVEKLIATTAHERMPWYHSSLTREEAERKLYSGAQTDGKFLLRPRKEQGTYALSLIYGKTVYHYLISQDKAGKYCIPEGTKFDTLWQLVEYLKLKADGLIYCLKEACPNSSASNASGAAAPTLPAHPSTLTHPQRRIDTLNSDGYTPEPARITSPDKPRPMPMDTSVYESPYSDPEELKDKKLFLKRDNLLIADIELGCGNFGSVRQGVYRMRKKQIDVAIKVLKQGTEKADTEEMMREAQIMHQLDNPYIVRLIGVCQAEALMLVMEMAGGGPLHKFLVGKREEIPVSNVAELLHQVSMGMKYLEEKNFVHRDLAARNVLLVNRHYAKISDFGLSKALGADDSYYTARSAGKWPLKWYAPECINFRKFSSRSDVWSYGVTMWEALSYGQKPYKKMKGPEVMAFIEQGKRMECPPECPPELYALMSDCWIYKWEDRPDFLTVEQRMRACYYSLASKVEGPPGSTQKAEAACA
# Protocol: as §1
Structure (SMILES),Ki (AurA) [nM],Ki (ERK2) [nM],Ki (GSK3β; read-out: Ki or IC50 GSK3β) [nM],Ki (IGF1R) [nM],Ki (JNK3) [nM],Ki (MKK4) [nM],Ki (PLK1) [nM],Ki (PRAK) [nM],Ki (SRC) [nM],Ki (SYK) [nM],Ki (ZAP70) [nM],Ki (GSK3β; read-out: GSK3β Ki) [nM]
Fc1ccc(-c2noc(CN3CCCCC3)c2-c2ccnc(NC3CCCCC3)n2)cc1 [V-05-015],> 1000,> 1000,> 1000,> 1000,8,> 1000,> 1000,> 1000,> 1000,> 1000,> 1000,
OC1CCN(Cc2onc(-c3ccc(F)cc3)c2-c2ccnc(NC3CCCCC3)n2)CC1 [V-05-013],> 1000,> 1000,,> 1000,5,> 1000,> 1000,> 1000,> 1000,> 1000,> 1000,730
OC[C@@H]1CCCN1Cc1onc(-c2ccc(F)cc2)c1-c1ccnc(NC2CCCCC2)n1 [V-05-014],> 1000,> 1000,> 1000,> 1000,10,> 1000,> 1000,> 1000,> 1000,> 1000,> 1000,
